The results in this text go back to patent US11292801B2, “Calpain modulators and therapeutic uses thereof” (Blade Therapeutics, Inc., priority 2016, dated 2022).

The conditions of this data set: rcm bond.

Read-outs that look alike come from different tables or passages of the source.

Regarding `CCOC(=O)[C@@H]1CC=CCCCCCc2ccccc2C(=O)N1`, for the setting “from C=CCCCCCc1ccccc1C(=O)N[C@@H](CC=C)C(=O)OCC, Grubbs 2nd generation catalyst, DCM, 8.31 mM, 50.0 °C, 14.0 h”, the ring closure, yield of all isomers is 18.1%. With `CON(C)C(=O)[C@@H]1CC=CCOCCOCc2ccccc2C(=O)N1`, the ring closure, yield of all isomers came to 86.7% (from C=CCOCCOCc1ccccc1C(=O)N[C@@H](CC=C)C(=O)N(C)OC, Grubbs 2nd generation catalyst, DCE, 6.64 mM, 80.0 °C, 10.0 h) and 91.3% (from C=CCOCCOCc1ccccc1C(=O)N[C@@H](CC=C)C(=O)N(C)OC, Grubbs II, 1,2-dichloroethane, 6.64 mM, 80.0 °C, 10.0 h). The compound `CON(C)C(=O)[C@@H]1CC=CCCOc2ccnc(c2)-c2ccccc2C(=O)N1` gave a ring closure, yield of all isomers (from C=CCCOc1ccnc(-c2ccccc2C(=O)N[C@@H](CC=C)C(=O)N(C)OC)c1, Zhan Catalyst-1B, DCE, 2.87 mM, 95.0 °C, 16.0 h) of 43.4%.

Turning to `CON(C)C(=O)[C@@H]1CC=CCCCCCc2ncccc2C(=O)N1`, the ring closure, yield of all isomers (from C=CCCCCCc1ncccc1C(=O)N[C@@H](CC=C)C(=O)N(C)OC, Grubbs catalyst 2nd generation, DCE, 9.93 mM, 95.0 °C, 48.0 h) was 65.1%.

As to `CON(C)C(=O)[C@@H]1CC=CCCCCCc2ccccc2C(=O)N1`, the ring closure, yield of all isomers (from C=CCCCCCc1ccccc1C(=O)N[C@@H](CC=C)C(=O)N(C)OC, Grubbs 2nd generation catalyst, DCM, 6.37 mM, 48.0 °C, 16.0 h) is 49.4%.
